According to US6117840A, “CS-1 peptidomimetics, compositions and methods of using the same” (Cytel Corporation, priority 1997, dated 2000):
Square brackets hold non-standard residues; d marks the D form. Peptide text beside a SMILES is read from it. * marks the point of attachment. NHOctadecyl = CCCCCCCCCCCCCCCCCCN*; hPhe = N[C@@H](CCc1ccccc1)C(=O)O; Cha = N[C@@H](CC1CCCCC1)C(=O)O; NHDecyl = CCCCCCCCCCN*; PhAc = O=C(Cc1ccccc1)*; Inp = O=C(O)C1CCNCC1; NHBn = c1ccc(CN*)cc1; Bz = O=C(c1ccccc1)*; Ahx = NCCCCCC(=O)O; NHNH2 = NN*

Target: T1, VLA-4 (Homo sapiens, UniProt P05556+P13612)
T1 construct: host or cells: Jurkat (human T lymphoblastic line)
Assay: not given
Format: cell-based
Conditions: not given
Protocol: Binding inhibition is measured here as a concentration of peptide that inhibits one-half the binding between a standard number of Jurkat cells and a standard amount of CS-1 peptide bound to the surface of a microtiter plate well. Those concentrations are conveniently expressed as IC50 values, smaller numbers indicating a lower concentration required to inhibit 50 percent binding and therefore greater potency. Further specifics of this assay are provided hereinafter.
Jurkat cells (ATCC TIB 152), a human T lymphoblastic line, labeled with ^51 chromium were used to assay in vitro binding inhibition provided by various peptides discussed herein.
The plates were prepared as follows: The 25-mer CS1 peptide (SEQ ID NO:1) dissolved at 0.5-1 μg/ml in a buffer of 0.1M NaHCO3 at pH 9.5 tha also contained 10 μg/ml of bovine serum albumin (BSA) or a conjugate o the CS1 peptide linked to ovalbumin (CS1-OVA) dissolved at 1-2.5 μg/ml in the same buffer was used as the substrate. Each well of the microtiter plates was coated with 50 μl of substrate or buffer alone for controls The wells were permitted to dry out completely and were then rinsed twice with PBS at pH 7.4. Nonspecific binding sites of each well were then blocked using 200 μl per well of RPMI/1 percent BSA for two hours at room temperature. Both solid phaseaffixed substrates provided similar results.
Jurkat cells (3-5×10^6 cells) were placed into a 15 ml Falcon.TM roundbottom tube with a cap. The tube was centrifuged, and the extra medium was then removed.
Two hundred microliters of a ^51 Cr labeling solution were added to th centrifuged cells and maintained in contact with the cells for 90-120 minutes in a warm room. This procedure typically provides about 50,000-100,000 cpm/well with about 80-100 percent cell viability. Longer contact times provide a greater amount of labeling but lower cell viability.
The labeled cells are washed with (i) complete medium, (ii) 1 mM EDTA/PBS and then (iii) RPMI/1 percent BSA free of serum components. The cells are centrifuged after each washing. The cells are finally resuspended in serumfree RPMI/1 percent BSA at a concentration of 1×10^6 viabl cells/ml, which provides a concentration that is diluted by onehalf in th assay.
Inhibitor peptides are prepared as stock solutions at 20 mg/ml in DMSO in 1.5 ml cryogenic screwcap vials, and were stored at -70° C. Using Flow™ roundbottom or Vbottom microtiter plates, the inhibitor peptides were prepared at twice the assay concentration in RPMI/1 percent BSA at 6 μl/well.
Four initial dilutions were typically used.
The ^51 Crlabeled cells (1×10^6 cells at 60 μl/well) were then admixed with the diluted peptide solutions. The admixtures were maintained at room temperature (about 22° C.) for 30 minutes.
One hundred microliters of each inhibitor peptide/cell admixture were transferred to the substratecoated wells. This was done in triplicate for each dilution. The resulting plates were incubated for 30 minutes at 37° C. and then washed gently three times with RPMI/1 percent BSA at 200 μl/well. Binding was observed microscopically, particularly after the second wash.
The bound cells were then lysed by the addition of a 0.5 percent solution of sodium dodecylsulfate in water at 100 μl/well. The resulting solutions were then processed for counting and calculation of IC50 values following usual procedures. Appropriate positive and negative controls were used with each plate so that the results of separate assays could be normalized and compared.

T1 sequence (P13612 34-1032): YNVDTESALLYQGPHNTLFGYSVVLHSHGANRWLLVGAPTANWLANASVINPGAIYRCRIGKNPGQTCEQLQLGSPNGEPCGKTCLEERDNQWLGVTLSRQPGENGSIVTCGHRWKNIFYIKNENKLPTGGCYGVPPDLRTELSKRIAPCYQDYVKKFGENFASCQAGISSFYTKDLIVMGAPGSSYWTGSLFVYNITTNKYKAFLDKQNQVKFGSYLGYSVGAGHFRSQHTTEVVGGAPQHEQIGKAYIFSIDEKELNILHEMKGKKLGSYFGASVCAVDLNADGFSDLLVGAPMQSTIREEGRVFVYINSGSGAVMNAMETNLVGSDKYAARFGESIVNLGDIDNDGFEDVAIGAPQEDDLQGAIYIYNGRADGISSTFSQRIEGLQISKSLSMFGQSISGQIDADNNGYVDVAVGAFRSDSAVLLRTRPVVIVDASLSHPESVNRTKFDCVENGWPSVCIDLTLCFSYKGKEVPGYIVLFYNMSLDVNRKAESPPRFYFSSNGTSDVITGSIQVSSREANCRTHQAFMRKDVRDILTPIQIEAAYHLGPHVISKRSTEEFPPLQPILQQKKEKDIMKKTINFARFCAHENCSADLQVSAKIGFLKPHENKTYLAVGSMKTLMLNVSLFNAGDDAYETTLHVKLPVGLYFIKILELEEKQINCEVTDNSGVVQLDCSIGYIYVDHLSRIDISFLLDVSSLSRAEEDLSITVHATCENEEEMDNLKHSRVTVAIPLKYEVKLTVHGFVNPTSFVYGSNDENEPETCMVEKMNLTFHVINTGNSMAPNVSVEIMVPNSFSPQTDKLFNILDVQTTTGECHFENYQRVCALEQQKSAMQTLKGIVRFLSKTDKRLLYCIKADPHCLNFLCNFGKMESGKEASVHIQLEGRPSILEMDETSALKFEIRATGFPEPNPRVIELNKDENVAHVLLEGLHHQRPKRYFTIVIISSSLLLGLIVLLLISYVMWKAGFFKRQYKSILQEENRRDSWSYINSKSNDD
T1 sequence (P05556 21-798): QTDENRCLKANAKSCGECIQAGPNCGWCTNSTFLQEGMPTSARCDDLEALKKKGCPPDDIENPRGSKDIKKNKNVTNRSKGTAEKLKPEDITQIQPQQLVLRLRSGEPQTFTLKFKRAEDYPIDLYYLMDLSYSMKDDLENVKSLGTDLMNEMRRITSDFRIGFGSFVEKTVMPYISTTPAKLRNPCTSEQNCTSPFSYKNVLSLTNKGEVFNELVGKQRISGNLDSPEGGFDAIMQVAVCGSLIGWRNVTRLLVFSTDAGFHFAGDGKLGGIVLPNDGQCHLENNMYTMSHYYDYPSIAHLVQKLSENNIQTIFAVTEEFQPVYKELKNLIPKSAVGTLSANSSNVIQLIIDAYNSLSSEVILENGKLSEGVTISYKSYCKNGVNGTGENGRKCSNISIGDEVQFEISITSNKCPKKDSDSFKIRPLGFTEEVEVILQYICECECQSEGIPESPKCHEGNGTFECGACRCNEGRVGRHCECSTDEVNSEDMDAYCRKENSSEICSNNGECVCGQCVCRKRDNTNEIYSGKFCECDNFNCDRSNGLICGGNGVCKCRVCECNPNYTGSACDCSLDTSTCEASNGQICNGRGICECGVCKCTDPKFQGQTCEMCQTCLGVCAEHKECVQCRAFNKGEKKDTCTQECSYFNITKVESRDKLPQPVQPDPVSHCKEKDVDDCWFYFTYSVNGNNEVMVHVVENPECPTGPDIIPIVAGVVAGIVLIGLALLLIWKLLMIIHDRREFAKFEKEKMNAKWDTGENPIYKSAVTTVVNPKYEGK

RELATIVE POTENCY (inhibition of VLA-4 binding CS-1)	SMILES
0	CC(=O)N[C@@H](CC(C)C)C(=O)N[C@@H](CC(=O)O)C(=O)N[C@H](C(N)=O)C(C)C [L D V acetyl amide, reference compound] (Ac-Leu-Asp-Val-NH2)

Same assay, conditions: relative to standard peptide SEQ ID NO:3 (=1), normalized IC50; about one-tenth or less of SEQ ID NO:3 assigned zero

SMILES	RELATIVE POTENCY (inhibition of VLA-4 binding CS-1)
CC(C)C[C@H](NC(=O)Cc1ccccc1)C(=O)N[C@@H](CC(=O)O)C(=O)N[C@@H](Cc1ccccc1)C(=O)N1CCC(C(N)=O)CC1 (PhAc-LDF[Inp]-NH2)	933
CC(C)C[C@H](NC(=O)Cc1ccccc1)C(=O)N[C@@H](CC(=O)O)C(=O)N[C@@H](Cc1ccccc1)C(=O)N1CCCC1CO (stereo partly shown)	184
CC(C)C[C@H](NC(=O)Cc1ccccc1)C(=O)N[C@@H](CC(=O)O)C(=O)N[C@@H](Cc1ccccc1)C(=O)N1CC[N+](C)(C)CC1	313
NC(=O)[C@H]1CCCN1C(=O)[C@H](Cc1ccccc1)NC(=O)[C@H](CC(=O)O)NC(=O)[C@H](CC1CCCCC1)NC(=O)c1ccccc1 (Bz-[Cha]DF[dP]-NH2)	17
NC(=O)[C@H]1CCCN1C(=O)[C@H](Cc1ccccc1)NC(=O)[C@H](CC(=O)O)NC(=O)[C@H](CC1CCCCC1)NC(=O)Cc1ccccc1 (PhAc-[Cha]DF[dP]-NH2)	217
CC(C)C[C@H](NC(=O)Cc1ccccc1)C(=O)N[C@@H](CC(=O)O)C(=O)NC1Cc2ccccc2N(CC(N)=O)C1=O (stereo partly shown)	45
CC(C)C[C@H](NC(=O)Cc1ccccc1)C(=O)N[C@@H](CC(=O)O)C(=O)NN(Cc1ccccc1)Cc1ccccc1	0
CC(C)C[C@H](NC(=O)Cc1ccccc1)C(=O)N[C@@H](CC(=O)O)C(=O)NCc1ccccc1 [X L D Z phenylacetyl benzylamide] (PhAc-Leu-Asp-NHBn)	19
CC(C)C[C@H](NC(=O)Cc1ccccc1)C(=O)N[C@@H](CC(=O)O)C(=O)N[C@@H](Cc1c[nH]c2ccccc12)C(=O)N1CCC[C@@H]1C(N)=O [X L D W p phenylacetyl amide] (PhAc-LDW[dP]-NH2)	184
CC(C)C[C@H](NC(=O)Cc1ccccc1)C(=O)N[C@@H](CC(=O)O)C(=O)NN [X L D Z phenylacetyl hydrazide] (PhAc-Leu-Asp-NHNH2)	< 1
CC(C)C[C@H](NC(=O)Cc1ccccc1)C(=O)N[C@@H](CC(=O)O)C(=O)N[C@@H](CCc1ccccc1)C(=O)N1CCC[C@@H]1C(N)=O (PhAc-LD[hPhe][dP]-NH2)	94
CC(C)C[C@H](NC(=O)Cc1ccccc1)C(=O)N[C@@H](CC(=O)O)C(=O)NCCN1CCOCC1	13
CCCCCCCCCCNC(=O)[C@@H]1CCCN1C(=O)[C@H](Cc1ccccc1)NC(=O)[C@H](CC(=O)O)NC(=O)[C@H](CC(C)C)NC(=O)Cc1ccccc1 [X L D F P Z phenylacetyl decylamide] (PhAc-LDFP-NHDecyl)	2

Tested on: Jurkat T cell line
Assay: Binding of Jurkat cells to frozen human RA synovial sections
Format: cell-based
Conditions: 10-mer at 500 μg/ml; inhibitor peptide at its IC50
Protocol: Binding studies were carried out using the Jurkat T cell line and frozen RA synovial sections. […] Stimulated MOLT-4 cells behaved similarly.

SMILES	inhibition of Jurkat cell adhesion to RA synovial sections
CC[C@H](C)[C@H](NC(=O)[C@H](CCC(=O)O)NC(=O)[C@@H]1CCCN1C(=O)CN)C(=O)N[C@@H](CC(C)C)C(=O)N[C@@H](CC(=O)O)C(=O)N[C@H](C(=O)N1CCC[C@H]1C(=O)N[C@@H](CO)C(=O)N[C@H](C(=O)O)[C@@H](C)O)C(C)C [G P E I L D V P S T free amine free acid, GPEILDVPST] (H-GPEILDVPST-OH)	could be inhibited

Tested on: not listed separately
Assay: Water solubility
Format: physicochemical
Conditions: forms a turbid dispersion rather than a solution

water solubility	SMILES
not water-soluble	CCCCCCCCCCCCCCCCCCNC(=O)CCCCCNC(=O)[C@@H]1CCCN1C(=O)[C@H](Cc1ccccc1)NC(=O)[C@H](CC(=O)O)NC(=O)[C@H](CC(C)C)NC(=O)Cc1ccccc1 [phenylacetyl--Leu--Asp--Phe--Pro--NH(CH2)5 C(O)NHC18 H37] (PhAc-LDFP[Ahx]-NHOctadecyl; C-terminus assumed)
